This is an account of results in publication PMC12163725, “Synthesis and functionalization of vinyl sulfonimidamides and their potential as electrophilic warheads” (Chemical Science, 2025).

A short description of the data set: Kinetic study of reaction with glutathione (GSH), half-life by 1H NMR (disappearance of vinyl group). To be noted: second order kinetics, 1.0 equiv. glutathione, phosphate buffer pH 7.3 in D2O:(CD3)2SO = 2:1, 1H NMR.

Each structure is given as a SMILES string.

Protocol: The reactivity of the vinyl sulfonimidamides was next examined under biologically relevant conditions using glutathione (GSH) as the nucleophile at pH 7.3 (Scheme 4).[32] The half-life (t1/2) was determined using ^1H NMR analysis, with the disappearance of the vinyl group monitored as a function of time (full experimental details are provided in the ESI ^†). […] Due to the rapid reaction rates, the half-life for the majority of substrates was calculated using second-order kinetics. However, the half-life of unfunctionalized α-Me and β-Me-substituted sulfonimidamide derivatives were determined with pseudo-first-order kinetics using six equivalents of glutathione.
Reaction was conducted in a mixture of buffer solution and deuterated DMSO
(Buffer:(CD3)2SO = 2:1). A relatively high (CD3)2SO ratio was employed due to the insolubility
of less polar substrates in the buffer solution.
Buffer solution containing 0.0648 mol/L disodium hydrogen phosphate and 0.0153 mol/L
potassium dihydrogen phosphate at p H 7.3[10] was prepared using d euterium oxide and
stored at 20 °C. […] The stock solution […]
For the majority of substrates, the half-life was determined using second order kinetics with […]
was measured and plotted as the inverse against time. The half-life was calculated through […]
starting material was plotted as natural log and the half-life was calculated through the best-

Regarding `C=CS(=O)(=NS(C)(=O)=O)N1CCOCC1` (stereo not shown) [Compound 3e], the “Half-life (t1/2) of reaction with GSH” value is recorded as “too fast to be determined”.
